Measurements published in patent publication US20080207572A1, “Use of Dual C-Kit/Fgfr3 Inhibitors for Treating Multiple Myeloma” (AB Science, priority 2005, published 2008).

Columns and labels:
Type in all cases: cell-based
[1] = tested on: human mast cell line expressing the JMΔ27 mutated c-kit; test: Apoptosis induction in mast cell line; conditions: 0.1 μM, after 48 hours; control cells 10% apoptotic
Procedure: (§1) In this experiment, after 48 hours, 0.1 μM AB1010 induced apoptosis of approximately 50% versus control cells in which 10% of cells were apoptotic. In addition, a separate cell line (Ba/F3-derived) expressing JMΔ27 was tested and apoptosis was induced to a level of approximately 85%.

[2] = tested on: cell line (Ba/F3-derived) expressing JMΔ27; test: Apoptosis induction in Ba/F3-derived cell line
Procedure: as §1

[3] = tested on: t(4; 14) FGFR3+ human plasma cell line LP1; test: FGF-enhanced proliferation (3H-Thymidine uptake); conditions: in the presence of FGF; FIG. 2
From the text: In the presence of FGF, the proliferation of the t(4; 14) FGFR3+ human plasma cell line is enhanced, as measured by 3H-Thymidine uptake.

`Cc1ccc(NC(=O)c2ccc(CN3CCN(C)CC3)cc2)cc1Nc1nc(-c2cccnc2)cs1` [AB1010] was tested, and the apoptosis induced [1] was “approximately 50%”, the apoptosis induced [2] was “approximately 85%” and the “inhibition of FGF-enhanced proliferation” value [3] was “inhibit the FGF-enhanced proliferation”.
